Measurements taken from patent US10550379B2, “Degron fusion constructs and methods for controlling protein production” (THE BOARD OF TRUSTEES OF THE LELAND STANFORD JUNIOR …, priority 2015, dated 2020).
“Also recorded” adds a separate entry of the source. Peptide text beside a SMILES is read from it. * marks the point of attachment. Cbz = O=C(OCc1ccccc1)*

Assays:
YFP-NS3pro-NS4A = assay: degradation pathway of YFP-NS3pro-NS4A in HeLa cells; type: cell-based; conditions: ASV 1 μM, 18 to 24 hours post-transfection, MG132 10 μM, bortezomib 66 nM, chloroquine 100 μM, bafilomycin-A1 200 nM
Source text: FIGS. 8A-8D show characterization of a degron contained in NS3pro-NS4A. […] The hydrophobic N-terminal of NS4A then inserts into the membrane (right). Elements are numbered from N-terminus to C-terminus to clarify order of linkage. […] Removal of the NS3 helicase domain may expose hydrophobic residues in the helicase C-terminus and prevent cleavage at the NS3/4A site, preventing membrane insertion of NS4A. Models were generated using PDB file 1CU1. […] HeLa cells expressed YFP (FIG. 8C) or PSD95 (FIG. 8D) fused to NS3pro-NS4A (wt), or the degron-disrupted mutant (GGS). From 18 to 24 hours post-transfection, cells were treated with ASV (1 μM) and degradation inhibitors (MG, MG132 10 μM; BTZ, bortezomib 66 nM; CHQ, chloroquine 100 μM; BAF, bafilomycin-A1 200 nM). This short time window was used to avoid toxicity by degradation inhibitors. Final DMSO concentration was 0.23% (v/v) for all conditions in (FIG. 8C) and 0.33% for all conditions in (FIG. 8D).
To determine which cellular proteolytic pathways were responsible for degrading NS3pro-NS4A fusions, we examined the effect of inhibiting proteasomes or autophagosomes. We allowed cells expressing YFP-NS3pro-NS4A to produce uncleaved YFP-NS3pro-NS4A in asunaprevir while applying inhibitors of proteasome or autophagosome degradation (FIG. 8C).
Chemical Reagents. […]. Further serial dilutions were performed for the dose-dependency experiment. For long-term CLV and ASV incubations, drug was applied simultaneously with transfection media or 1-2 hours after transfection. MG132 (Sigma) was dissolved in DMSO for a 1000× working stock of 10 mM. Bortezomib (Adooq Biosci.) was dissolved in DMSO for a 500× working stock of 33 μM. Chloroquine diphosphate salt (Sigma) was dissolved in H2O for a 1000× (100 mM) working stock. Bafilomycin A1 (Santa Cruz) was dissolved in DMSO for a 500× (100 μM) working stock. Azidohomoalanine (AHA) (Click-IT, Invitrogen) was dissolved in DMSO for a 500× working stock of 25 mM. Alkyne-PEG4-biotin (Invitrogen) was dissolved in DMSO for a 100× working stock of 4 mM. L-cystine dihydrochloride (Sigma) was dissolved in H2O pH 2.0 for a working stock of 0.1 M.

SMASh-YFP or YFP-SMASh [1] = assay: drug repression of SMASh-tagged YFP in budding yeast; type: cell-based, S. cerevisiae; conditions: 24 hours, SD media
Source text: When expressed in yeast from an episomal gene, we found the C-terminal SMASh tag with a protease cleavage site of sequence DEMEEC/S was able to confer drug repression on YFP expression, similarly to its performance in mammalian cells (FIG. 5A, lane 4-6). However, the N-terminal SMASh tag and fast-cleaving site (EDVVPC/S) used in mammalian cells allowed leaky expression of YFP in yeast in the presence of drug (data not shown). […] . […] To the best of our knowledge, SMASh is the first method that uses a single genetic element to impose drug control over the expression of specific proteins in yeast.
Yeast Strains and Cell Growth.

SMASh-YFP or YFP-SMASh [2] = assay: SMASh tag at either terminus of YFP in HEK293 cells; type: cell-based; conditions: HEK293, 24 hours
Source text: NS3 protease sequence (light gray), sequence derived from NS3 helicase (dark gray), and sequence derived from NS4A (medium gray) are shown. NS5A/5B-based protease substrate site is in dark gray. […] DMSO was used as vehicle control. β-actin served as a loading control. […] Scale bar, […].

[3] = system: panel of cellular proteases; conditions: 1.5 μM; cited from earlier work
[4] = in vivo, po; cited from earlier work
YSH1-SMASh yeast = assay: yeast spotting assay, YSH1-SMASh knock-in; conditions: ASV (10 μM), 48 hours
SEC14-SMASh yeast = assay: yeast spotting assay, SEC14-SMASh knock-in; conditions: ASV (3 μM), 48 hours
MeV-EGFP-P-SMASh = assay: drug control of MeV-EGFP-P-SMASh in infected Vero cells
MeV-EGFP = assay: drug effect on parental MeV-EGFP in infected Vero cells; conditions: presence of asunaprevir, 72 hours
SMASh-Arc = assay: optimization of N-terminal SMASh tag on Arc in HEK293 cells, immunoblot; conditions: HEK293, 24 hours
[5] = system: AID target protein expressed from the ADH promoter; conditions: cited from earlier work
GluRIIA-CFP-SMASh = GluRIIA-CFP-SMASh (Hepatitis C virus genotype 1a, UniProt P27958, T1080A/T1100M/T1173A); type: cell-based, Drosophila; conditions: HEK293, 24 hours
HEK293 cells = assay: protein half-life by SMASh shutoff, immunoblotting and mathematical model

CC(C)C[C@@H](C=O)NC(=O)[C@H](CC(C)C)NC(=O)[C@H](CC(C)C)NC(=O)OCc1ccccc1 [MG132] (Cbz-Leu-Leu-Leu-aldehyde)
YFP-NS3pro-NS4A protein levels (YFP-NS3pro-NS4A): modestly increased

C=C[C@@H]1C[C@]1(NC(=O)[C@@H]1C[C@@H](Oc2ncc(OC)c3ccc(Cl)cc23)CN1C(=O)[C@@H](NC(=O)OC(C)(C)C)C(C)(C)C)C(=O)NS(=O)(=O)C1CC1 [asunaprevir]
YFP expression, episomal, GPD promoter (SMASh-YFP or YFP-SMASh [1]; 3 μM asunaprevir): undetectable levels; also recorded: completely suppressed
YFP expression, YFP-SMASh integrated into yeast chromosome, GPD promoter (SMASh-YFP or YFP-SMASh [1]; ASV, immunoblot): shutoff
YFP fluorescence in living cells (SMASh-YFP or YFP-SMASh [2]): nearly undetectable
cleaved and full-length YFP protein, immunoblot (SMASh-YFP or YFP-SMASh [2]; N-terminal or C-terminal fusions): significantly reduced
activity against a panel of cellular proteases [3]: no activity
concentration that can be maintained in plasma and organs for hours [4]: 150 nM
growth of YSH1-SMASh yeast (YSH1-SMASh yeast): suppressed
growth of SEC14-SMASh yeast (SEC14-SMASh yeast): complete growth inhibition
suppression of EGFP fluorescence compared to the untreated case (MeV-EGFP-P-SMASh; 3 μM ASV, 3 days post-transfection (so in the source), Vero cells): 97.3%
P production in virus-infected cells, immunoblotting (MeV-EGFP-P-SMASh; presence of asunaprevir): efficiently inhibited
EGFP expression and formation of syncytia (MeV-EGFP-P-SMASh; presence of asunaprevir, Vero cells, 72 hours): completely abolished
EGFP expression and formation of syncytia by parental virus (MeV-EGFP): unaffected
Arc protein suppression, 6-aa linker with the NS5A/5B substrate (SMASh-Arc): complete protein suppression
Arc protein suppression, 18-aa linker with the NS5A/5B substrate (SMASh-Arc): incomplete

O=C(O)Cc1c[nH]c2ccccc12 [auxin]
concentration required for AID to degrade a target protein [5]: 1000 µM

CO/C1=C\C(C)=C\[C@@H](C)[C@@H](O)[C@@H](C)C/C(C)=C/C=C/[C@H](OC)[C@@H]([C@@H](C)[C@@H](O)[C@H](C)[C@@]2(O)C[C@@H](O)[C@H](C)[C@@H](C(C)C)O2)OC1=O [bafilomycin A1]
YFP-NS3pro-NS4A protein levels (YFP-NS3pro-NS4A): modestly increased

CC(C)C[C@H](NC(=O)[C@H](Cc1ccccc1)NC(=O)c1cnccn1)B(O)O [bortezomib]
YFP-NS3pro-NS4A protein levels (YFP-NS3pro-NS4A): modestly increased

CCN(CC)CCCC(C)Nc1ccnc2cc(Cl)ccc12 (centres unmarked) [chloroquine]
YFP-NS3pro-NS4A protein levels (YFP-NS3pro-NS4A): modestly increased

COc1ccc2c(O[C@@H]3C[C@H]4C(=O)N[C@]5(C(=O)O)C[C@H]5/C=C\CCCCC[C@H](NC(=O)OC5CCCC5)C(=O)N4C3)cc(-c3csc(NC(C)C)n3)nc2c1 [ciluprevir]
GluRIIA expression (GluRIIA-CFP-SMASh): shutoff

CYP21A2: short-lived protein, released from CYP21A2-SMASh by cleavage
acceleration of degradation by SMASh (HEK293 cells): 9 fold
decay rate constant kdeg (HEK293 cells): 0.312 h⁻¹
production rate constant ksyn (HEK293 cells; 24-28 hours post-transfection): 0.438 h⁻¹
